Measured values: ChEMBL document CHEMBL3232722, “Synthesis and kinase inhibitory activity of new sulfonamide derivatives of pyrazolo[4,3-e][1,2,4]triazines” (Eur J Med Chem, 2014)
pIC50: −log10 of the molar value. Calls of active or inactive are those of the source. The calls are words filed in the database; no cut-off is given here.

How the values were obtained:
[1] = target: T1, Bcr/Abl fusion protein (Homo sapiens) (UniProt P00519+P11274); experiment: Inhibition of Bcr/Abl kinase tyrosine phosphorylation in human K562 cells after 1 hr by immunoblot analysis; assay type: cell-based
T1 sequence (P00519 whole entry, looked up, the tested form may be a part): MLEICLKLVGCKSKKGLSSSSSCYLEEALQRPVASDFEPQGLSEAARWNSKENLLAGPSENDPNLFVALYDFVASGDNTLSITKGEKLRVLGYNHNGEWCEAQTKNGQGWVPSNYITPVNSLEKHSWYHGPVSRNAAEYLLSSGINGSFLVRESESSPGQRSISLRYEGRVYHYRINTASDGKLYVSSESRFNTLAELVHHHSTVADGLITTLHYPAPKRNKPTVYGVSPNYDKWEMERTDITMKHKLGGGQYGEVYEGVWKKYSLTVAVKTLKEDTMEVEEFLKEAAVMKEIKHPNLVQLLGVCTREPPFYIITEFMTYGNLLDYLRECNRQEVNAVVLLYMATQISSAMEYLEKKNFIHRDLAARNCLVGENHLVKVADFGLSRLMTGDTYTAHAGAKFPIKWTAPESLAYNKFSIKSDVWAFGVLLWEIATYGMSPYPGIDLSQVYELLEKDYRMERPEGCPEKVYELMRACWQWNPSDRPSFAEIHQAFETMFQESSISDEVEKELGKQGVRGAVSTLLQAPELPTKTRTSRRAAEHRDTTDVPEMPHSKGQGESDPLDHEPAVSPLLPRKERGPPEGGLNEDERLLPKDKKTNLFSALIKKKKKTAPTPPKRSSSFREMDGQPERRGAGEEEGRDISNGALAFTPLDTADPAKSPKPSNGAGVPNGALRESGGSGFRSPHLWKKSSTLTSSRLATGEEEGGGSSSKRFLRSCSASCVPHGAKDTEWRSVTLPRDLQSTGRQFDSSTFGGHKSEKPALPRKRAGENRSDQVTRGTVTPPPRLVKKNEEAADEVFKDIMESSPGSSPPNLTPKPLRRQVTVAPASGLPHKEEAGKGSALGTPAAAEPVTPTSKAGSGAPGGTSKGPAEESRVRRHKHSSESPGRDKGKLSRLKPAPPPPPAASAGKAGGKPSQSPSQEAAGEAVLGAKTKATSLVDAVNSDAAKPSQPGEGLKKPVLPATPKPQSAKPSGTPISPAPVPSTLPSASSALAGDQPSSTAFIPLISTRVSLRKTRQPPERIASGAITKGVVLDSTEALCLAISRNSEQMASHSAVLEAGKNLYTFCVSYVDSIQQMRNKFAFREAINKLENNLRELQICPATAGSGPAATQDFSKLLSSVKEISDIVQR
T1 sequence (P11274 whole entry, looked up, the tested form may be a part): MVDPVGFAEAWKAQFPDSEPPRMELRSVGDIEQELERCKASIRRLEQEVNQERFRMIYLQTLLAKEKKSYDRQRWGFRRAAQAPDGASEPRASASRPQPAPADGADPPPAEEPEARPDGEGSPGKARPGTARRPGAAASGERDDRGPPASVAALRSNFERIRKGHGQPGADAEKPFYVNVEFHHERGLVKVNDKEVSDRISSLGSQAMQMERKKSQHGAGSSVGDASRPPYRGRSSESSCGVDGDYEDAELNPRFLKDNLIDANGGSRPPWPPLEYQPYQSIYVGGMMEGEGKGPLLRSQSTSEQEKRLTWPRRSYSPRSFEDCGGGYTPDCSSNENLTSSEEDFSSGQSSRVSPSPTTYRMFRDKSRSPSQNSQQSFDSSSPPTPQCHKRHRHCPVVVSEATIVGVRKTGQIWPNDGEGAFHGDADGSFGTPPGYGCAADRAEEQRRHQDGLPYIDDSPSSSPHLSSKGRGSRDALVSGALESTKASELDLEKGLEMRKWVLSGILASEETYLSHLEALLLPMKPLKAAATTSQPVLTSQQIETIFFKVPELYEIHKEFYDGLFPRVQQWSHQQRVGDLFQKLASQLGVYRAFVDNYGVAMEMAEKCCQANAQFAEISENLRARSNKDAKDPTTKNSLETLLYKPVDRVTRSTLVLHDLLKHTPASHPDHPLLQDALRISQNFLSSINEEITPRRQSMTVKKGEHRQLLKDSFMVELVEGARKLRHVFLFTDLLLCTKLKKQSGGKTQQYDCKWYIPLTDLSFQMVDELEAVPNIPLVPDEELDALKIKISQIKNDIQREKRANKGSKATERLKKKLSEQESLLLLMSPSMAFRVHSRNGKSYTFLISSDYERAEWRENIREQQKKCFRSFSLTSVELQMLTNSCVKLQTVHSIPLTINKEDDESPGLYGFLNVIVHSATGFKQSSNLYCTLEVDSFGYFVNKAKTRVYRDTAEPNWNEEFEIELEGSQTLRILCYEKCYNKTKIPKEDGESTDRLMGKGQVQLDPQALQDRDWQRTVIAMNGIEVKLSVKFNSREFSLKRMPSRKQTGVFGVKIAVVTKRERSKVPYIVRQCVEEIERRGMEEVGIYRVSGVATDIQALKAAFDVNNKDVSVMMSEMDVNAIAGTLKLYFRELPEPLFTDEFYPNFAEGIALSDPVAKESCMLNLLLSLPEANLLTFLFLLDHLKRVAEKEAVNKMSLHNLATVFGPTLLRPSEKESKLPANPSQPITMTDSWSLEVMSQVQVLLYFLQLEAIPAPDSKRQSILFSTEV

K562 [2] = experiment: In vitro antiproliferative activity against human K562 cells assessed as decrease in cell viability after 24 hrs by MTT assay; assay type: functional, cell-based; settings: for pIC50: K562, 24 h
[3] = target: T2, Tyrosine-protein kinase ABL1 (Homo sapiens, UniProt P00519); experiment: Inhibition of Abl kinase tyrosine phosphorylation in human K562 cells after 1 hr by immunoblot analysis; assay type: cell-based
T2 sequence (P00519 whole entry, the tested form may be a part): as the sequence (P00519 whole entry, looked up, the tested form may be a part) above

[4] = target: T1, Bcr/Abl fusion protein (Homo sapiens); experiment: Inhibition of Bcr/Abl kinase in human K562 cells assessed as decrease in CrkL phosphorylation at Tyr207 at 1 to 100 uM after 1 hr by immunoblot analysis; assay type: cell-based
MCF7 [5] = experiment: Ratio of IC50 for human MCF7 cells to IC50 for human K562 cells; assay type: functional
[6] = target: T2, Tyrosine-protein kinase ABL1; experiment: Inhibition of recombinant Abl kinase (unknown origin) expressed in Sf9 cells using GGEAIYAAPFKK as substrate in presence of [gamma33P]ATP
MDA-MB-231 [7] = experiment: Cytostatic activity against human MDA-MB-231 cells assessed as decrease in [3H]thymidine incorporation into DNA after 24 hrs by liquid scintillation counting analysis; assay type: functional, cell-based
K562 [8] = experiment: Antiproliferative activity against human K562 cells assessed as increase in number of cells with compromised cell membranes at 10 to 100 uM after 24 hrs by propidium iodide exclusion assay based flow cytometry; assay type: functional
[9] = target: T1, Bcr/Abl fusion protein (Homo sapiens); experiment: Inhibition of Bcr/Abl kinase in human K562 cells assessed as decrease in STAT5 phosphorylation at Tyr694 after 1 hr by immunoblot analysis; assay type: cell-based
K562 [10] = experiment: Induction of apoptosis in human K562 cells assessed as increase in sub-diploid cell population at 10 to 100 uM after 24 hrs by propidium iodide staining based flow cytometry; assay type: functional
CCRF-CEM = experiment: In vitro antiproliferative activity against human CCRF-CEM cells assessed as decrease in cell viability after 24 hrs by MTT assay; assay type: functional, cell-based
MCF7 [11] = experiment: In vitro antiproliferative activity against human MCF7 cells assessed as decrease cell viability after 24 hrs by MTT assay; assay type: functional, cell-based; settings: for pIC50: MCF7, 24 h
K562 [12] = experiment: Effect on cell cycle distribution in human K562 cells after 24 hrs by propidium iodide staining based flow cytometry; assay type: functional
MDA-MB-231 [13] = experiment: In vitro antiproliferative activity against human MDA-MB-231 cells assessed as decrease in cell vaibility after 24 hrs by MTT assay; assay type: functional, cell-based; settings: for pIC50: MDA-MB-231, 24 h
[14] = target: Casein kinase II subunit alpha (Homo sapiens, UniProt P68400); experiment: Inhibition of CK2alpha1 (unknown origin) using casein as substrate in presence of [gamma33P]ATP
Sequence of Casein kinase II subunit alpha (P68400 whole entry): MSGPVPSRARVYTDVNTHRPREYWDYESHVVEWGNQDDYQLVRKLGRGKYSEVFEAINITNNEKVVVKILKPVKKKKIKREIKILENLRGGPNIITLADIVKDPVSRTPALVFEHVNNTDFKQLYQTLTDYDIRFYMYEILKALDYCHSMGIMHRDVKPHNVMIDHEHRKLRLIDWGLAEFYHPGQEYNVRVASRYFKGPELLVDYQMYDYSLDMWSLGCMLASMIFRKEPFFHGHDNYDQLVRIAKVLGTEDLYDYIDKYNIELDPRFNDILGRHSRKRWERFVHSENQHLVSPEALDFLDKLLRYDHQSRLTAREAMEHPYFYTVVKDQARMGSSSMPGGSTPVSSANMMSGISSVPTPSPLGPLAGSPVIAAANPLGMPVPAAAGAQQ

BV-173 = experiment: (§1) In vitro antiproliferative activity against human BV173 cells assessed as decrease in cell viability after 24 hrs by MTT assay; assay type: functional, cell-based
[15] = as §1; assay type: functional, cell-based; settings: BV-173, 24 h
HL-60 = experiment: In vitro antiproliferative activity against human HL60 cells assessed as decrease in cell viability after 24 hrs by MTT assay; assay type: functional, cell-based; settings: for pIC50: HL-60, 24 h
MCF7 [16] = experiment: Cytostatic activity against human MCF7 cells assessed as decrease in [3H]thymidine incorporation into DNA after 24 hrs by liquid scintillation counting analysis; assay type: functional, cell-based
K562 [17] = experiment: Inhibition of tyrosine phosphorylation of protein with molecular weight between 40 and 60 kDa in human K562 cells after 1 hr by immunoblot analysis; assay type: functional, cell-based
[18] = target: Cyclin-dependent kinase 2/cyclin E1 (Homo sapiens, UniProt P24941); experiment: Inhibition of CDK2/cyclin E (unknown origin) expressed in Sf9 cells using histone H1 as substrate in presence of [gamma33P]ATP
K562 [19] = settings: Homo sapiens, 10 uM
Description: Inhibition of tyrosine phosphorylation of protein with molecular weight between 40 and 60 kDa in human K562 cells at 10 uM after 1 hr by immunoblot analysis

MDA-MB-231 [20] = experiment: Ratio of IC50 for human MDA-MB-231 cells to IC50 for human K562 cells; assay type: functional
[21] = target: T2, Tyrosine-protein kinase ABL1; experiment: Inhibition of Abl kinase tyrosine phosphorylation in human K562 cells at 1 to 100 uM after 1 hr by immunoblot analysis; assay type: cell-based
K562 [22] = experiment: Inhibition of tyrosine phosphorylation of protein with molecular weight between 40 and 60 kDa in human K562 cells at 1 to 100 uM after 1 hr by immunoblot analysis; assay type: functional, cell-based
[23] = target: T1, Bcr/Abl fusion protein (Homo sapiens); experiment: Inhibition of Bcr/Abl kinase tyrosine phosphorylation in human K562 cells at 1 to 100 uM after 1 hr by immunoblot analysis; assay type: cell-based

## Cc1nn(C)c2nnc(Nc3ccc(S(=O)(=O)N4CCNCC4)cc3)nc12
[1]
  inhibition: Dose-dependent effect
K562 [2]
  inhibition: Dose-dependent effect
  pIC50: 4.57
[3]
  inhibition: Dose-dependent effect
[4]
  inhibition: Active
MCF7 [5]
  Ratio IC50: 5
[6]
  pIC50: 5.24
MDA-MB-231 [7]
  pIC50: 3.99
  inhibition: Dose-dependent effect
K562 [8]
  Activity: Active
[9]
  inhibition: Dose-dependent effect
K562 [10]
  Activity: Active
CCRF-CEM
  pIC50: 4.70
  inhibition: Dose-dependent effect
MCF7 [11]
  inhibition: Dose-dependent effect
  pIC50: 3.82
K562 [12]
  Activity: inactive
MDA-MB-231 [13]
  inhibition: Dose-dependent effect
  pIC50: 3.89
[14]
  pIC50: < 4.60
BV-173
  inhibition: Dose-dependent effect
[15]
  pIC50: 4.66
HL-60
  inhibition: Dose-dependent effect
HL-60; read-out: IC50
  pIC50: 4.26
MCF7 [16]
  pIC50: 3.77
  inhibition: Dose-dependent effect
K562 [17]
  inhibition: Dose-dependent effect
[18]
  pIC50: < 4.60

## Cc1ccc(NC(=O)c2ccc(CN3CCN(C)CC3)cc2)cc1Nc1nccc(-c2cccnc2)n1 [IMATINIB]
K562 [19]
  inhibition: Active
K562 [2]
  pIC50: 4.89
CCRF-CEM
  pIC50: 4.35
[15]
  pIC50: 4.70
HL-60
  pIC50: 4.26

## Cc1nn(C)c2nnc(Nc3ccc(S(=O)(=O)N4CCCNCC4)cc3)nc12
[1]
  inhibition: Dose-dependent effect
K562 [2]
  inhibition: Dose-dependent effect
  pIC50: 4.68
[3]
  inhibition: Dose-dependent effect
MDA-MB-231 [20]
  Ratio IC50: 7
[6]
  pIC50: 5.23
MDA-MB-231 [7]
  pIC50: 3.82
  inhibition: Dose-dependent effect
K562 [8]
  Activity: Active
[9]
  inhibition: Dose-dependent effect
K562 [10]
  Activity: Active
CCRF-CEM
  pIC50: 4.44
  inhibition: Dose-dependent effect
MCF7 [11]
  inhibition: Dose-dependent effect
  pIC50: 3.85
K562 [12]
  Activity: inactive
MDA-MB-231 [13]
  inhibition: Dose-dependent effect
  pIC50: 3.81
[14]
  pIC50: < 4.30
BV-173
  inhibition: Dose-dependent effect
[15]
  pIC50: 4.66
HL-60
  inhibition: Dose-dependent effect
HL-60; read-out: IC50
  pIC50: 4.42
MCF7 [16]
  pIC50: 3.91
  inhibition: Dose-dependent effect
K562 [17]
  inhibition: Dose-dependent effect
[18]
  pIC50: < 4.30

## Cc1nn(C)c2nnc(Nc3ccc(S(=O)(=O)NCCN)cc3)nc12
K562 [2]
  inhibition: Dose-dependent effect
  pIC50: 4.11
[21]
  inhibition: inactive
[6]
  pIC50: 4.82
MDA-MB-231 [7]
  pIC50: 4.05
  inhibition: Dose-dependent effect
[9]
  inhibition: Dose-dependent effect
K562 [10]
  Activity: inactive
CCRF-CEM
  pIC50: 4.25
  inhibition: Dose-dependent effect
MCF7 [11]
  inhibition: Dose-dependent effect
  pIC50: 3.90
MDA-MB-231 [13]
  inhibition: Dose-dependent effect
  pIC50: 3.92
[14]
  pIC50: < 4.30
BV-173
  inhibition: Dose-dependent effect
[15]
  pIC50: 4.41
HL-60
  inhibition: Dose-dependent effect
HL-60; read-out: IC50
  pIC50: 4.38
MCF7 [16]
  pIC50: 4.07
  inhibition: Dose-dependent effect
K562 [22]
  inhibition: inactive
[23]
  inhibition: inactive
[18]
  pIC50: 4.46
